Data taken from article PMC12845312, “Hydrazonylthiazole Derivatives as Dual EGFR and ALR2 Inhibitors: Design, Synthesis, and Comprehensive In Vitro and In Silico Evaluation for Potential Anticancer Activity” (Pharmaceuticals, 2025).
Like-named read-outs stand apart in the source and are kept apart here. Blank lines part the entries; values can stand above or below the compound they belong to.

What was measured:
ALR2 = ALR2 (Homo sapiens, UniProt P15121); assay: In vitro ALR2 inhibition assay (NADPH absorbance, DL-glyceraldehyde substrate); assay type: biochemical; details: for Ki: ALR2, DL-glyceraldehyde substrate, mean ±SEM (n = 3)
Description: The protocol followed earlier steady-state kinetic studies with minor adjustments. Measurements were performed at 37 °C in 10 mM sodium phosphate buffer (pH 7.4) in 1 mL quartz cuvettes (1 cm path length). Each reaction mixture contained 0.11 mM NADPH and DL-glyceraldehyde at final concentrations between 0.071 and 0.376 mM. Test compounds were introduced from DMSO stock solutions, and the total DMSO content was kept below 1% (v/v).
Prior to substrate addition, the enzyme and inhibitor were combined and left on ice for 1 min to allow initial complex formation. The reaction was initiated by adding DL-glyceraldehyde, and the decrease in absorbance at 340 nm (ε340 = 6.22 mM^−1 cm^−1) was recorded for 180 s using a calibrated UV-Vis instrument. […] All values represent the mean of triplicate determinations, and the entire experiment was repeated on three separate days (n = 3). Reaction rates were calculated from the linear segment of each kinetic trace.
For selected compounds, including compound 5, extended kinetic analyses were conducted by varying both substrate and inhibitor levels. The resulting Lineweaver-Burk plots (1/v vs. 1/[S]) were used to interpret the inhibition pattern (Figure 18). Secondary replots were used to extract KI values by linear regression. Data processing and curve fitting were performed in GraphPad Prism (v10.0), and kinetic parameters are expressed as mean ± SEM.

MCF-7 cells = details: cited from earlier work
EGFR [1] = target: T1, EGFR (Homo sapiens, UniProt P00533); details: read-out: EGFR inhibition IC50 (converted); cited from earlier work
T1 construct: purchased Promega V3831
T1 sequence (P00533 25-1210): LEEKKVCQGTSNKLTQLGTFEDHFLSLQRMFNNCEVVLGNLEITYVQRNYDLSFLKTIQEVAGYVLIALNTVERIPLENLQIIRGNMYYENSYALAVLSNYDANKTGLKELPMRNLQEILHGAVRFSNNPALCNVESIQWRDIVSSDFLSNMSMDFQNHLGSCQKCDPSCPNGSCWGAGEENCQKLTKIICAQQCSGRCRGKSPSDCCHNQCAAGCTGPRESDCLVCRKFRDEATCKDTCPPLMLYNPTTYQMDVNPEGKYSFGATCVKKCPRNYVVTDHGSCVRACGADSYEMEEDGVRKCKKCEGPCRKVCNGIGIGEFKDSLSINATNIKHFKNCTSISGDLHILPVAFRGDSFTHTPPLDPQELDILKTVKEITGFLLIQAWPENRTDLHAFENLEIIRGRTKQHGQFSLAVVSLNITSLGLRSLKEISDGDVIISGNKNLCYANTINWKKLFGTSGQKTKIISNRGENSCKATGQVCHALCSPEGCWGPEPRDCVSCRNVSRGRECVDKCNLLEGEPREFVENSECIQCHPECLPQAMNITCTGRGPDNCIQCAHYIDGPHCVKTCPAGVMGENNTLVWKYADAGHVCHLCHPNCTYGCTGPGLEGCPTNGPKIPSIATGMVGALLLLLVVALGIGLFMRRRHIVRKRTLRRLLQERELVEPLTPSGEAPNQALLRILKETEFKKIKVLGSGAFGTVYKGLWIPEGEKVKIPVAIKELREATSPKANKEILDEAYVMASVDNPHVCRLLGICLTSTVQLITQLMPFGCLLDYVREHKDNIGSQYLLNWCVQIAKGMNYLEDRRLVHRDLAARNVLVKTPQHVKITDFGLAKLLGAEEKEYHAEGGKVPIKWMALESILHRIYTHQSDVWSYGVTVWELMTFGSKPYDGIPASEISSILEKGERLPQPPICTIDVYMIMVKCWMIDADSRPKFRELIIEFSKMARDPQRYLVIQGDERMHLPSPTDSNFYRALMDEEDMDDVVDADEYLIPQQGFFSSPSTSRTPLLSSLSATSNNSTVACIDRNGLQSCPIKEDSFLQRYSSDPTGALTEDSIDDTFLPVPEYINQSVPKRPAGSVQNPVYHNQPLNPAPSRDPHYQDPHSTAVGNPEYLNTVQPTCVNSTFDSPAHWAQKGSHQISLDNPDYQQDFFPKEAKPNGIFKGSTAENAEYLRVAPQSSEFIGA

A549 (NSCLC) cells = assay: MTT cytotoxicity assay in A549 cells; assay type: cell-based; details: for IC50: Homo sapiens, A549; for reduction in A549 viability: 10 µM
Description: (§1) A549 (ATCC, Manassas, VA, USA) and MCF-7 (ATCC, VA, USA) cells were grown in Dulbecco’s Modified Eagle Medium (DMEM; Wako, Osaka, Japan) containing 10% fetal bovine serum (FBS; Equitech-Bio, Kerrville, TX, USA). Jurkat T-cells (ATCC, VA, USA) were maintained in RPMI-1640 medium (Wako Pure Chemical Industries, Osaka, Japan) supplemented with 10% FBS, while PBMCs (Precision Bioservices, Frederick, MD, USA) were expanded in the same medium supplemented with 10% human AB serum (Gemini, Woodland, CA, USA). Streptomycin was added to all culture media at a final concentration of 89 µg/mL (Meiji Seika Pharma, Tokyo, Japan). All cells were kept at 37 °C under humidified conditions with 5% CO2. For viability measurements, A549 and MCF-7 cells were seeded into 24-well plates, whereas PBMCs were dispensed into 96-well plates (Iwaki, Asahi Glass, Chiba, Japan) at initial densities of 4 × 10^4 cells/mL and 5 × 10^5 cells/mL, respectively. […] The DMSO content was kept constant at 1% in all wells. Cell viability was assessed using the MTT colorimetric assay (Dojindo, Kumamoto, Japan), following established procedures with minor protocol refinements previously reported in the literature.

[2] = tested on: MCF-7 (breast cancer) cells; assay: MTT cytotoxicity assay in MCF-7 cells; assay type: cell-based; details: for IC50: Homo sapiens, MCF7; for reduced viability in MCF-7 cells: 10 µM
Description: as §1

Jurkat leukemia cells = assay: MTT cytotoxicity assay in Jurkat cells; assay type: cell-based; details: Homo sapiens
Description: (§2) A549 (ATCC, Manassas, VA, USA) and MCF-7 (ATCC, VA, USA) cells were grown in Dulbecco’s Modified Eagle Medium (DMEM; Wako, Osaka, Japan) containing 10% fetal bovine serum (FBS; Equitech-Bio, Kerrville, TX, USA). Jurkat T-cells (ATCC, VA, USA) were maintained in RPMI-1640 medium (Wako Pure Chemical Industries, Osaka, Japan) supplemented with 10% FBS, while PBMCs (Precision Bioservices, Frederick, MD, USA) were expanded in the same medium supplemented with 10% human AB serum (Gemini, Woodland, CA, USA). Streptomycin was added to all culture media at a final concentration of 89 µg/mL (Meiji Seika Pharma, Tokyo, Japan). All cells were kept at 37 °C under humidified conditions with 5% CO2. For viability measurements, A549 and MCF-7 cells were seeded into 24-well plates, whereas PBMCs were dispensed into 96-well plates (Iwaki, Asahi Glass, Chiba, Japan) at initial densities of 4 × 10^4 cells/mL and 5 × 10^5 cells/mL, respectively. […] Concentrated stock solutions were prepared in dimethyl sulfoxide (DMSO; Wako Pure Chemical Industries) and diluted with culture medium to final assay concentrations ranging from […]. The DMSO content was kept constant at 1% in all wells. Cell viability was assessed using the MTT colorimetric assay (Dojindo, Kumamoto, Japan), following established procedures with minor protocol refinements previously reported in the literature.

[3] = tested on: peripheral blood mononuclear cells (PBMCs); assay: MTT cytotoxicity assay in PBMCs (selectivity); assay type: cell-based; details: for IC50: PBMC, MTT assay; for SI (Selectivity Index): IC50 for PBMC/IC50 for Jurkat cell line
Description: as §2

A549 cells [4] = assay: Apoptosis, Annexin V/ethidium homodimer staining; assay type: cell-based; details: IC50 concentration, 24 h
Description: After exposure, cells were detached using 0.05% trypsin, rinsed twice with 1× binding buffer, and prepared for fluorescence-based apoptotic assessment. The resulting pellet was suspended in a staining mixture consisting of 50 µL of 1× binding buffer, along with 4 µL each of FITC-Annexin V, ethidium homodimer III, and Hoechst 33342. The suspension was incubated for 20 min at room temperature in the dark to ensure proper labeling. Following staining, cells were washed again with binding buffer, fixed in 2% paraformaldehyde, and briefly rinsed with phosphate-buffered saline (PBS). Apoptotic and necrotic populations were visualized and recorded using a Biorevo BZ-9000 fluorescence microscope (Keyence, Osaka, Japan), following procedures adapted from previously reported workflows.

HER-2 = target: T2, HER-2 (Homo sapiens, UniProt P04626); assay: HER-2 kinase inhibition (Promega HER-2 TK kit, ADP-Glo); assay type: biochemical
T2 construct: purchased Promega V9381
T2 sequence (P04626 23-1255): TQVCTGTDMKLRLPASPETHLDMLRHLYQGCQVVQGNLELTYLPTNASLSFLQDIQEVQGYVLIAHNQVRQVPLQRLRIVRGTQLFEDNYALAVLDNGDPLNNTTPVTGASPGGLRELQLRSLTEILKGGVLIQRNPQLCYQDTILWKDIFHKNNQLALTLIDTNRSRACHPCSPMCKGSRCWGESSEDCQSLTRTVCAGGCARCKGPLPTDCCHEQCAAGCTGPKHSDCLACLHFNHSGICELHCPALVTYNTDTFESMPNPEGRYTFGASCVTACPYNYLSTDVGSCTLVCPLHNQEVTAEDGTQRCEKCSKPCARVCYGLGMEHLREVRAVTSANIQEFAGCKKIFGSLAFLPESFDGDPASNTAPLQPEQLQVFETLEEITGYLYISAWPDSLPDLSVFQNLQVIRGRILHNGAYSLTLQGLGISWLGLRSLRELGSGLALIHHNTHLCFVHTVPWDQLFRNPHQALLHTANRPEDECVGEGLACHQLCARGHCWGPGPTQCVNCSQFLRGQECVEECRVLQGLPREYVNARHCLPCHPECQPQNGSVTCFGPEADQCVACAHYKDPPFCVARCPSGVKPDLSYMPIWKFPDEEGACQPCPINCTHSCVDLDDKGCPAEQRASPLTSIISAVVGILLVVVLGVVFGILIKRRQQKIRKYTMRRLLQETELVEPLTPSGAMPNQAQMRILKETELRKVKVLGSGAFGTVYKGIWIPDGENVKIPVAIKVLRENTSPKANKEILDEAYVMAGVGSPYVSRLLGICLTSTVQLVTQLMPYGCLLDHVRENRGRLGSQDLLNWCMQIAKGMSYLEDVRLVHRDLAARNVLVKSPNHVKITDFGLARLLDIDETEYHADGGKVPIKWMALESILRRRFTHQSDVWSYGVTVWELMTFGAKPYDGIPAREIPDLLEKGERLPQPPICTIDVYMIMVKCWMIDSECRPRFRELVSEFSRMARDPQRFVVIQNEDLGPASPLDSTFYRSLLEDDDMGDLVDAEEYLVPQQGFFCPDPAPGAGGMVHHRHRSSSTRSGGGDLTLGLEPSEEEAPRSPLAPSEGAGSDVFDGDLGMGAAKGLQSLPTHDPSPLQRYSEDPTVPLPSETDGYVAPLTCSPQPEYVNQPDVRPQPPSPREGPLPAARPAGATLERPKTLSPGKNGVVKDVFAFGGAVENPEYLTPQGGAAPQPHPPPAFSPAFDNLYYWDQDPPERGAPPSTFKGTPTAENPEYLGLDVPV
Description: (§3) EGFR kinase activity was monitored using the Promega EGFR TK kit (Cat. No. V3831) at final test concentrations of 1 µM and 10 µM. HER-2 activity was assessed under analogous conditions using the Promega HER-2 TK kit (Cat. No. V9381) at 10 µM, in accordance with earlier studies. For each assay, the enzyme and its substrate were diluted in a mixture containing 95 µL of 2.5× kinase buffer and 15 µL of 100 µM ATP. Reactions were assembled in 384-well plates by dispensing 4 µL of each compound solution (0.1–100 µM) into wells containing 8 µL of the enzyme/ATP/substrate preparation. Plates were incubated for 1.5 h at room temperature, after which ADP formation, reflecting kinase turnover, was quantified using the ADP-Glo™ detection system (Promega, Madison, WI, USA). Luminescence was measured with an Infinite M1000 reader (Tecan, Grödig, Austria).

A549 cells [5] = tested on: A549 cells; design: method as in doi:10.1016/j.molstruc.2024.139067; details: read-out: IC50 against A549 cells; cited from earlier work
EGFR [6] = target: T1, EGFR; assay: EGFR kinase inhibition (Promega EGFR TK kit, ADP-Glo); assay type: biochemical
Description: as §3

[7] = read-out: IC50 against MCF-7 cells

- Ki (ALR2): 1830 ± 110 nM
SMILES: Cn1ccnc1/C=N/Nc1nc(-c2ccc([N+](=O)[O-])cc2)cs1 [Compound 2, 1-[(4-(4-Nitrophenyl)-1,3-thiazol-2-yl)amino]-2-[(1-methyl-1H-imidazol-2-yl)methylidene]hydrazine]

- Ki (ALR2): 910 ± 50 nM
SMILES: Cn1ccnc1/C=N/Nc1nc(-c2ccc(C(F)(F)F)cc2)cs1 [Compound 9, 1-[(4-(4-Trifluoromethylphenyl)-1,3-thiazol-2-yl)amino]-2-[(1-methyl-1H-imidazol-2-yl)methylidene]hydrazine]

SMILES: CCOC(=O)c1s/c(=N/N=C(\C)c2ccc(Nc3ccnc4cc(Cl)ccc34)cc2)n(C)c1C [Compound 6b]
- IC50 (MCF-7 cells; read-out: IC50 against MCF-7 cell line): 5350 nM
- IC50 (EGFR [1]): 18.9 nM

SMILES: C/C(=N\Nc1nc(C)c(/N=N/c2ccc(Cl)cc2)s1)c1cccs1 [Compound 5j]
- IC50 (MCF-7 cells; read-out: IC50 toward MCF-7 cells): 10900 nM
- IC50 (EGFR [1]): 82.8 nM

- inhibition at 10 µM (HER-2): 93%
SMILES: CS(=O)(=O)CCNCc1ccc(-c2ccc3ncnc(Nc4ccc(OCc5cccc(F)c5)c(Cl)c4)c3c2)o1 [Lapatinib, lapatinib, reference compound]
- IC50 (A549 (NSCLC) cells): 18000 ± 5120 nM
- IC50 [2]: 8430 ± 2850 nM
- IC50 (Jurkat leukemia cells): 1350 ± 410 nM
- IC50 [3]: 9790 ± 2690 nM
- apoptosis induction (A549 cells [4]): highly significant increases vs. untreated control

SMILES: O=[N+]([O-])c1ccc(-c2csc(N/N=C/c3c4ccccc4cc4ccccc34)n2)cc1 [Compound A5]
- IC50 (MCF-7 cells; [7]): 7000 nM
- IC50 (A549 cells [5]): 8510 nM
- IC50 (EGFR [1]): 880 nM

- Ki (ALR2): 440 ± 90 nM
SMILES: Cn1ccnc1/C=N/Nc1nc(-c2ccc(F)cc2)cs1 [Compound 3, 1-[(4-(4-Fluorophenyl)-1,3-thiazol-2-yl)amino]-2-[(1-methyl-1H-imidazol-2-yl)methylidene]hydrazine]

- Ki (ALR2): 210 ± 20 nM
SMILES: COc1ccc(-c2csc(N/N=C/c3nccn3C)n2)cc1 [Compound 8, 1-[(4-(4-Methoxyphenyl)-1,3-thiazol-2-yl)amino]-2-[(1-methyl-1H-imidazol-2-yl)methylidene]hydrazine]

- Ki (ALR2): 1910 ± 100 nM
SMILES: Cn1ccnc1/C=N/Nc1nc(-c2ccc3ccccc3c2)cs1 [Compound 11, 1-[(4-(Naphthalen-2-yl)-1,3-thiazol-2-yl)amino]-2-[(1-methyl-1H-imidazol-2-yl)methylidene]hydrazine]

- Ki (ALR2): 2010 ± 100 nM
SMILES: Cn1ccnc1/C=N/Nc1nc(-c2ccc3c(c2)OCO3)cs1 [Compound 12, 1-[(4-(Benzo[d][1,3]dioxol-5-yl)-1,3-thiazol-2-yl)amino]-2-[(1-methyl-1H-imidazol-2-yl)methylidene]hydrazine]

- Ki (ALR2): 210 ± 20 nM
SMILES: Cn1ccnc1/C=N/Nc1nc(-c2ccc(C#N)cc2)cs1 [Compound 6, 1-[(4-(4-Cyanophenyl)-1,3-thiazol-2-yl)amino]-2-[(1-methyl-1H-imidazol-2-yl)methylidene]hydrazine]

- inhibition at 1 µM (EGFR [6]): 23%
- inhibition at 10 µM (EGFR [6]): 51%
- Ki (ALR2): 80 ± 10 nM
- inhibition profile (Lineweaver–Burk) (ALR2; toward DL-glyceraldehyde): competitive inhibition profile
SMILES: Cn1ccnc1/C=N/Nc1nc(-c2ccc(Br)cc2)cs1 [Compound 5]
- reduction in A549 viability (A549 (NSCLC) cells): ~ 59%
- IC50 (A549 (NSCLC) cells): 6870 ± 2100 nM
- reduced viability in MCF-7 cells [2]: 67%
- IC50 [2]: 2780 ± 2850 nM
- IC50 (Jurkat leukemia cells): 1940 ± 650 nM
- SI (Selectivity Index) [3]: 37.39
- IC50 [3]: 72500 ± 14000 nM

- Ki (ALR2): 240 ± 20 nM
SMILES: Cn1ccnc1/C=N/Nc1nc(-c2ccc(S(C)(=O)=O)cc2)cs1 [Compound 10, 1-[(4-(4-Methylsulfonylphenyl)-1,3-thiazol-2-yl)amino]-2-[(1-methyl-1H-imidazol-2-yl)methylidene]hydrazine]

- Ki (ALR2): 2640 ± 160 nM
SMILES: Cn1ccnc1/C=N/Nc1nc(-c2ccccc2)cs1 [Compound 1, 1-[(4-Phenyl-1,3-thiazol-2-yl)amino]-2-[(1-methyl-1H-imidazol-2-yl)methylidene]hydrazine]

- Ki (ALR2): 280 ± 30 nM
SMILES: Cn1ccnc1/C=N/Nc1nc(-c2ccc(Cl)cc2)cs1 [Compound 4, 1-[(4-(4-Chlorophenyl)-1,3-thiazol-2-yl)amino]-2-[(1-methyl-1H-imidazol-2-yl)methylidene]hydrazine]

SMILES: Cn1c(-c2csc(NN=C3CCCC3)n2)nc2ccccc21 [Compound 4a]
- IC50 (MCF-7 cells; [7]): 6300 nM

- Ki (ALR2): 280 ± 30 nM
SMILES: Cc1ccc(-c2csc(N/N=C/c3nccn3C)n2)cc1 [Compound 7, 1-[(4-(4-Methylphenyl)-1,3-thiazol-2-yl)amino]-2-[(1-methyl-1H-imidazol-2-yl)methylidene]hydrazine]

- inhibition at 1 µM (EGFR [6]): 45%
- inhibition at 10 µM (EGFR [6]): 74%
- inhibition at 10 µM (HER-2): 1.89%
- Ki (ALR2): 2480 ± 140 nM
SMILES: Cn1ccnc1/C=N/Nc1nc(-c2ccc(-c3cccs3)cc2)cs1 [Compound 13, 1-[(4-(4-(Thiophen-2-yl)phenyl)-1,3-thiazol-2-yl)amino]-2-[(1-methyl-1H-imidazol-2-yl)methylidene]hydrazine]
- reduction in A549 viability (A549 (NSCLC) cells): ~ 67%
- IC50 (A549 (NSCLC) cells): 1330 ± 410 nM
- reduced viability in MCF-7 cells [2]: 69%
- IC50 [2]: 1740 ± 380 nM
- IC50 (Jurkat leukemia cells): 1650 ± 400 nM
- SI (Selectivity Index) [3]: 138.90
- IC50 [3]: 229000 ± 26200 nM
- apoptosis induction (A549 cells [4]): triggered apoptosis in A549 cells significantly compared with lapatinib
